Columns and labels:
[1] = tested on: CD8+ T cells; test: In vitro immunogenicity: T-cell priming with aAPCs loaded with peptide/MHC and anti-CD28, pMHC multimer readout; assay type: cell-based, human; conditions: Table 10b, pMHC multimer readout after T-cell priming
Protocol: After three cycles of stimulation, the detection of peptide-reactive cells was performed by 2D multimer staining with B*44/SEQ ID NO: 469 (FIG. 3A), B*44/SEQ ID NO: 512 (FIG. 3B), B*44/SEQ ID NO: 9 (FIG. 3C), B*44/SEQ ID NO: 11 (D), B*44/SEQ ID NO: 17 (E), B*44/SEQ ID NO: 35 (F) or B*44/SEQ ID NO: 41 (FIG. 3G). Right panels (FIGS. 3A through 3G) show control staining of cells stimulated with irrelevant B*44/peptide complexes. Viable singlet cells were gated for CD8+ lymphocytes. Boolean gates helped excluding false-positive events detected with multimers specific for different peptides.
In order to obtain information regarding the immunogenicity of the TUMAPs of the present invention, the inventors performed investigations using an in vitro T-cell priming assay based on repeated stimulations of CD8+ T cells with artificial antigen presenting cells (aAPCs) loaded with peptide/MHC complexes and anti-CD28 antibody.
In order to perform in vitro stimulations by artificial antigen presenting cells loaded with peptide-MHC complex (pMHC) and anti-CD28 antibody, the inventors first isolated CD8+ T cells from fresh HLA-A*02 leukapheresis products via positive selection using CD8 microbeads (Miltenyi Biotec, Bergisch-Gladbach, Germany) of healthy donors obtained from the University clinics Mannheim, Germany, after informed consent.
PBMCs and isolated CD8+ lymphocytes were incubated in T-cell medium (TCM) until use consisting of RPMI-Glutamax (Invitrogen, Karlsruhe, Germany) supplemented with 10% heat inactivated human AB serum (PAN-Biotech, Aidenbach, Germany), 100 U/ml Penicillin/100 μg/ml Streptomycin (Cambrex, Cologne, Germany), 1 mM sodium pyruvate (CC Pro, Oberdorda, Germany), 20 μg/ml Gentamycin (Cambrex). 2.5 ng/ml IL-7 (PromoCell, Heidelberg, Germany) and 10 U/ml IL-2 (Novartis Pharma, Nümberg, Germany) were also added to the TCM at this step.
Generation of pMHC/anti-CD28 coated beads, T-cell stimulations and readout was performed in a highly defined in vitro system using four different pMHC molecules per stimulation condition and 8 different pMHC molecules per readout condition.
The purified co-stimulatory mouse IgG2a anti human CD28 Ab 9.3 (Jung et al., 1987) was chemically biotinylated using Sulfo-N-hydroxysuccinimidobiotin as recommended by the manufacturer (Perbio, Bonn, Germany). Beads used were 5.6 μm diameter streptavidin coated polystyrene particles (Bangs Laboratories, Illinois, USA).
800.000 beads/200 μl were coated in 96-well plates in the presence of 4×12.5 ng different biotin-pMHC, washed and 600 ng biotin anti-CD28 were added subsequently in a volume of 200 μl. Stimulations were initiated in 96-well plates by co-incubating 1×10^6 CD8+ T cells with 2×10^5 washed coated beads in 200 μl TCM supplemented with 5 ng/ml IL-12 (PromoCell) for 3 days at 37° C. Half of the medium was then exchanged by fresh TCM supplemented with 80 U/ml IL-2 and incubating was continued for 4 days at 37° C. This stimulation cycle was performed for a total of three times. For the pMHC multimer readout using 8 different pMHC molecules per condition, a two-dimensional combinatorial coding approach was used as previously described (Andersen et al., 2012) with minor modifications encompassing coupling to 5 different fluorochromes. Finally, multimeric analyses were performed by staining the cells with Live/dead near IR dye (Invitrogen, Karlsruhe, Germany), CD8-FITC antibody clone SK1 (BD, Heidelberg, Germany) and fluorescent pMHC multimers. For analysis, a BD LSRII SORP cytometer equipped with appropriate lasers and filters was used. Peptide specific cells were calculated as percentage of total CD8+ cells. Evaluation of multimeric analysis was done using the FlowJo software (Tree Star, Oregon, USA). In vitro priming of specific multimer+CD8+ lymphocytes was detected by comparing to negative control stimulations.

[2] = target: HLA-B*44:05 (Homo sapiens, UniProt P01889, A223V/A65T/A93T/A95T/D201E/D98Y/E176V/E187L/E204Q/E69K/G107R/H137Y/K202T/L105A/L119I/N104T/N87E/Q56L/Q94N/R106L/R155S/R180D/S101N/S121R/S35A/S48T/T118I/V36M/W191S/Y91S); test: MHC binding assay (UV-ligand exchange, β2m ELISA, peptide exchange yield); conditions: binding to HLA-B*44:05
Outline: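 Binding is read as exchange yield, i.e. stabilized complex remaining after UV cleavage of a photolabile ligand in the presence of the candidate peptide. Streptavidin-captured monomers (100-fold dilution) are probed with HRP-anti-β2m, 1h at 37° C, TMB, A450. Standard curve: HLA-A*02:01/MLA-001 monomers at 15-500 ng/ml.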

Row | Substance | Peptide exchange (MHC class I binding score, peptide exchange yield) [2] | Wells positive [%] [1]
1 | 17 (SEIYQPRGF; listed as Homo sapiens) [compound 17] | +++ (>50 = +++) | ++++ (>=70% = ++++)
2 | 18 (QEAPRPASSL; listed as Homo sapiens) [compound 18] | +++ (>50 = +++) | + (<20% = +)
3 | 19 (MEHSDENIQFW; listed as Homo sapiens) [compound 19] | ++ (>20% = ++) | ++ (20%-49% = ++)
4 | 20 (LEALLSDLF; listed as Homo sapiens) [compound 20] | +++ (>50 = +++) | ++ (20%-49% = ++)
5 | 22 (TEEITEGVW; listed as Homo sapiens) [compound 22] | ++++ (>75% = ++++) | + (<20% = +)
6 | 24 (EELALRIGL; listed as Homo sapiens) [compound 24] | +++ (>50 = +++) | ++++ (>=70% = ++++)
7 | 25 (SEKEPGQQY; listed as Homo sapiens) [compound 25] | ++ (>20% = ++) | ++ (20%-49% = ++)
8 | 28 (QEFPAHSL; listed as Homo sapiens) [compound 28] | +++ (>50 = +++) | + (<20% = +)
9 | 29 (TENPKKFKI; listed as Homo sapiens) [compound 29] | +++ (>50 = +++) | ++++ (>=70% = ++++)
10 | 30 (EEFCFSVRF; listed as Homo sapiens) [compound 30] | +++ (>50 = +++) | + (<20% = +)
11 | 31 (MESAKETRY; listed as Homo sapiens) [compound 31] | +++ (>50 = +++) | + (<20% = +)
12 | 32 (REYEYDLKW; listed as Homo sapiens) [compound 32] | ++++ (>75% = ++++) | + (<20% = +)
13 | 33 (IEYENQKRL; listed as Homo sapiens) [compound 33] | ++ (>20% = ++) | ++ (20%-49% = ++)
14 | 35 (RELVHMINW; listed as Homo sapiens) [compound 35] | ++++ (>75% = ++++) | ++ (20%-49% = ++)
15 | 36 (LEQASRIWSW; listed as Homo sapiens) [compound 36] | ++++ (>75% = ++++) | ++++ (>=70% = ++++)
16 | 37 (IEQGRVVLW; listed as Homo sapiens) [compound 37] | ++++ (>75% = ++++) | ++++ (>=70% = ++++)
17 | 39 (AEAMGKFKQCF; listed as Homo sapiens) [compound 39] | +++ (>50 = +++) | + (<20% = +)
18 | 40 (REVDPDDSYVF; listed as Homo sapiens) [compound 40] | +++ (>50 = +++) | + (<20% = +)
19 | 41 (EENTGKTYF; listed as Homo sapiens) [compound 41] | +++ (>50 = +++) | ++ (20%-49% = ++)
20 | 42 (SEENTGKTYF; listed as Homo sapiens) [compound 42] | +++ (>50 = +++) | ++ (20%-49% = ++)
21 | 44 (SEFGAPRW; listed as Homo sapiens) [compound 44] | +++ (>50 = +++) | ++++ (>=70% = ++++)

The next lines start with results.

Row | Peptide exchange (MHC class I binding score, peptide exchange yield) [2] | Substance | Wells positive [%] [1]
22 | +++ (>50 = +++) | 45 (EEINELNRMI; listed as Homo sapiens) [compound 45] | +++ (50%-69% = +++)
23 | +++ (>50 = +++) | 47 (TEVHSSPAQRW; listed as Homo sapiens) [compound 47] | +++ (50%-69% = +++)
24 | ++ (>20% = ++) | 49 (SEYVHSSF; listed as Homo sapiens) [compound 49] | + (<20% = +)
25 | ++ (>20% = ++) | 51 (VEMTGKHQL; listed as Homo sapiens) [compound 51] | ++ (20%-49% = ++)
26 | +++ (>50 = +++) | 53 (KEDNPSGHTY; listed as Homo sapiens) [compound 53] | ++ (20%-49% = ++)
27 | +++ (>50 = +++) | 54 (QEISAHRTEF; listed as Homo sapiens) [compound 54] | + (<20% = +)
28 | + (>10% = +) | 56 (ALEEGGGYIF; listed as Homo sapiens) [compound 56] | + (<20% = +)
29 | +++ (>50 = +++) | 57 (SEATHIITI; listed as Homo sapiens) [compound 57] | ++++ (>=70% = ++++)
30 | ++ (>20% = ++) | 59 (AEIEADRSYQ; listed as Homo sapiens) [compound 59] | + (<20% = +)
31 | +++ (>50 = +++) | 60 (EEAVRSVAF; listed as Homo sapiens) [compound 60] | ++ (20%-49% = ++)
32 | +++ (>50 = +++) | 61 (AEYSVHKI; listed as Homo sapiens) [compound 61] | + (<20% = +)
33 | ++++ (>75% = ++++) | 62 (AEYSVHKITSTF; listed as Homo sapiens) [compound 62] | + (<20% = +)
34 | +++ (>50 = +++) | 66 (AEVTLNNTI; listed as Homo sapiens) [compound 66] | + (<20% = +)
35 | ++++ (>75% = ++++) | 68 (NEIDIHSIYF; listed as Homo sapiens) [compound 68] | ++ (20%-49% = ++)
36 | +++ (>50 = +++) | 69 (DENIQKFIW; listed as Homo sapiens) [compound 69] | ++ (20%-49% = ++)
37 | +++ (>50 = +++) | 70 (AEAEEAMKRL; listed as Homo sapiens) [compound 70] | ++ (20%-49% = ++)
38 | ++ (>20% = ++) | 71 (AEVGDIIKV; listed as Homo sapiens) [compound 71] | ++ (20%-49% = ++)

— patent publication US12065471B2, “B*44 restricted peptides for use in immunotherapy against cancers and related methods” (Immatics Biotechnologies GmbH, priority 2018, dated 2024)
